PubChem BioAssay AID2060895 (Molecular Pharmacology Branch, DTP, NCI, 2025)

Test system: PDC 899932-113-R3-J6 complex spheroid viability
Test: Anticancer human tumor 899932-113-R3-J6-PDC patient-derived melanoma cell line growth inhibition [RAS]
Conditions: for viability, T/C: stronger effect = lower value; active = viability on the fitted dose curve at most 10% of control; inactive = the rest
Procedure, shortened: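 Tumour cells grown as complex spheroids with HUVEC endothelial cells and mesenchymal stem cells, treated with RAS pathway inhibitor combinations. Each agent spans half-log steps from near clinical Cmax, or 10 microM where Cmax is unknown.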
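For viability, T/C in this document: spheroids exposed to agents for seven days before readout; 100% = DMSO vehicle control wells.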

CC(C)n1nc(-c2ccc3oc(N)nc3c2)c2c(N)ncnc21 + CCn1c(-c2cc(N3CCN(C)CC3)cnc2C(C)OC)c2c3cc(ccc31)-c1csc(n1)CC(NC(=O)C1CC1C)C(=O)N1CCCC(N1)C(=O)OCC(C)(C)C2
34.8 nM: IC50 (curve of first compound, second compound 0.000949 µM)
inactive: viability, T/C (second compound 0.000949 µM, first compound 0.000316 µM) 82% | viability, T/C (second compound 0.000949 µM, first compound 0.001 µM) 63.3% | viability, T/C (second compound 0.000949 µM, first compound 0.00316 µM) 73.7% | viability, T/C (second compound 0.000949 µM, first compound 0.01 µM) 65% | viability, T/C (second compound 0.000949 µM, first compound 0.0316 µM) 51.4% | viability, T/C (second compound 0.000949 µM, first compound 0.1 µM) 30.5% | viability, T/C (second compound 0.003 µM, first compound 0.000316 µM) 35.6% | viability, T/C (second compound 0.003 µM, first compound 0.001 µM) 40.4% | viability, T/C (second compound 0.003 µM, first compound 0.00316 µM) 37% | viability, T/C (second compound 0.003 µM, first compound 0.01 µM) 34.4% | viability, T/C (second compound 0.003 µM, first compound 0.0316 µM) 29.1% | viability, T/C (second compound 0.003 µM, first compound 0.1 µM) 18.6%
active: viability, T/C (second compound 0.00949 µM, first compound 0.000316 µM) 4.03% | viability, T/C (second compound 0.00949 µM, first compound 0.001 µM) 3.88% | viability, T/C (second compound 0.00949 µM, first compound 0.00316 µM) 4.42% | viability, T/C (second compound 0.00949 µM, first compound 0.01 µM) 3.62% | viability, T/C (second compound 0.00949 µM, first compound 0.0316 µM) 2.93% | viability, T/C (second compound 0.00949 µM, first compound 0.1 µM) 2.22% | viability, T/C (second compound 0.03 µM, first compound 0.000316 µM) 2.41% | viability, T/C (second compound 0.03 µM, first compound 0.001 µM) 2.53% | viability, T/C (second compound 0.03 µM, first compound 0.00316 µM) 2.94% | viability, T/C (second compound 0.03 µM, first compound 0.01 µM) 2.25% | viability, T/C (second compound 0.03 µM, first compound 0.0316 µM) 2.43% | viability, T/C (second compound 0.03 µM, first compound 0.1 µM) 0.98% | viability, T/C (second compound 0.0949 µM, first compound 0.000316 µM) 2.52% | viability, T/C (second compound 0.0949 µM, first compound 0.001 µM) 2.03% | viability, T/C (second compound 0.0949 µM, first compound 0.00316 µM) 1.78% | viability, T/C (second compound 0.0949 µM, first compound 0.01 µM) 1.41% | viability, T/C (second compound 0.0949 µM, first compound 0.0316 µM) 1.07% | viability, T/C (second compound 0.0949 µM, first compound 0.1 µM) 0.65% | viability, T/C (second compound 0.3 µM, first compound 0.000316 µM) 1.86% | viability, T/C (second compound 0.3 µM, first compound 0.001 µM) 1.82% | viability, T/C (second compound 0.3 µM, first compound 0.00316 µM) 2.06% | viability, T/C (second compound 0.3 µM, first compound 0.01 µM) 1.52% | viability, T/C (second compound 0.3 µM, first compound 0.0316 µM) 1.91% | viability, T/C (second compound 0.3 µM, first compound 0.1 µM) 0.73%
< 0.316 nM: IC50 (curve of first compound, second compound 0.003 µM) | IC50 (curve of first compound, second compound 0.00949 µM) | IC50 (curve of first compound, second compound 0.03 µM) | IC50 (curve of first compound, second compound 0.0949 µM) | IC50 (curve of first compound, second compound 0.3 µM)

C[C@@H](NC(=O)c1ncnc(N)c1Cl)c1ncc(C(=O)Nc2cc(C(F)(F)F)c(Cl)cn2)s1
7.59 µM [middle of 4 runs]: IC50 (curve of compound)
inactive: viability, T/C (compound 0.0316 µM) 126% [middle of 4 runs] | viability, T/C (compound 0.1 µM) 132% [middle of 4 runs] | viability, T/C (compound 3.16 µM) 105% [middle of 4 runs] | viability, T/C (compound 10 µM) 32.6% [middle of 4 runs]

C=CC(=O)N1CCN(c2nc(OCC3CCCN3C)nc3c(F)c(-c4nc(N)cc(C)c4C(F)(F)F)c(Cl)cc23)C(C)C1 (stereo not given)
inactive: viability, T/C (compound 0.00316 µM) 109% [middle of 12 runs] | viability, T/C (compound 0.01 µM) 108% [middle of 12 runs] | viability, T/C (compound 0.0316 µM) 108% [middle of 12 runs] | viability, T/C (compound 0.1 µM) 107% [middle of 12 runs] | viability, T/C (compound 0.316 µM) 105% [middle of 12 runs] | viability, T/C (compound 1 µM) 103% [middle of 12 runs]
> 1000 nM: IC50 (compound alone, run of 09/09/2024) | IC50 (curve of compound)
